Among the data in patent US8546588B2, “Substituted hydroxamic acids and uses thereof” (Millennium Pharmaceuticals, Inc., priority 2010, dated 2013) are IC50 values, retold here.

Structures are written as SMILES.

For this experiment, the target named is T1, purified human HDAC6 (Homo sapiens, UniProt Q9UBN7).
T1 construct: purchased BPS Bioscience 5006
T1 sequence (Q9UBN7 1-1215): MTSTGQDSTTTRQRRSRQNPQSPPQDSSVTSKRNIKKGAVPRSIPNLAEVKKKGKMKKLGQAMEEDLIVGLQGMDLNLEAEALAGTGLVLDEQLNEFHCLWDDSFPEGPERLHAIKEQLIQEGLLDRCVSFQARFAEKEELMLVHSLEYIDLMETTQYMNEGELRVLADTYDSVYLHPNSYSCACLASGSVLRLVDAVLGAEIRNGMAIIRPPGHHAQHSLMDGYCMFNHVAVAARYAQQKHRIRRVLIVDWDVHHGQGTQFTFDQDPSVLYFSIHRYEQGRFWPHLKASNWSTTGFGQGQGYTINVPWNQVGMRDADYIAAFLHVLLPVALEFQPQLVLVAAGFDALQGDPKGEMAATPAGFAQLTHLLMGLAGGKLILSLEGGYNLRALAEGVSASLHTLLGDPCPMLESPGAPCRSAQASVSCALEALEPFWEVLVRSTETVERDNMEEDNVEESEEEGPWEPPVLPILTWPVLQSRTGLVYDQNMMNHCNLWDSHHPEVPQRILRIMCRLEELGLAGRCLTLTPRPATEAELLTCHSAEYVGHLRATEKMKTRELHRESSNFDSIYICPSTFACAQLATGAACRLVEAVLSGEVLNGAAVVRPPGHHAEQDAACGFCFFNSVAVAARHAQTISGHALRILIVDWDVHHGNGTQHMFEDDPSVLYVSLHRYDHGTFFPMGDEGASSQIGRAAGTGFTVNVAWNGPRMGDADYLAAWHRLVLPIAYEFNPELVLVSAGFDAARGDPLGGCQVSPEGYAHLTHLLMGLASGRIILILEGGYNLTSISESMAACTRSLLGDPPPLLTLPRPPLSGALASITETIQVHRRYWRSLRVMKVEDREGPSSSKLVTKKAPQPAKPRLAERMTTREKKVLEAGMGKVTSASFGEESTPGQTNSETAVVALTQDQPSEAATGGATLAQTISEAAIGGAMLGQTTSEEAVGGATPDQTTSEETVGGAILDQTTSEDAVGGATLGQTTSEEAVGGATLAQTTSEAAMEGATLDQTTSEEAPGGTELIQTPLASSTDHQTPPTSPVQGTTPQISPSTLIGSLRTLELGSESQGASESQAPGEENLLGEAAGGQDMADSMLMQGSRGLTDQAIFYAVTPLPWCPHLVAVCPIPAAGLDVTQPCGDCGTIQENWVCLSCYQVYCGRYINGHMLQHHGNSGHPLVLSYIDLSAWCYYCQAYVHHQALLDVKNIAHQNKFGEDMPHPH
As to the kind of experiment: HDAC6 Enzyme Assay. Format: biochemical. As to conditions: substrate Ac-Arg-Gly-Lys(Ac)-AMC peptide, 1 hour at 30° C. The procedure: To measure the inhibition of HDAC6 activity, purified human HDAC6 (BPS Bioscience; Cat. No. 5006) is incubated with substrate Ac-Arg-Gly-Lys(Ac)-AMC peptide (Bachem Biosciences; Cat. No. I-1925) for 1 hour at 30° C. in the presence of test compounds or vehicle DMSO control. The reaction is stopped with the HDAC inhibitor trichostatin A (Sigma; Cat. No. T8552) and the amount of Arg-Gly-Lys-AMC generated is quantitated by digestion with trypsin (Sigma; Cat. No. T1426) and subsequent measurement of the amount of AMC released using a fluorescent plate reader (Pherastar; BMG Technologies) set at Ex 340 nm and Em 460 nm. Concentration response curves are generated by calculating the fluorescence increase in test compound-treated samples relative to DMSO-treated controls, and enzyme inhibition (IC50) values are determined from those curves.
For the compound `COc1ccc(C(=O)N[C@@H](C)c2ncc(C(=O)NO)s2)cc1` [Compound I-175, N-hydroxy-2-{(1S)-1-[(4-methoxybenzoyl)amino]ethyl}-1,3-thiazole-5-carboxamide], the half-inhibitory concentration (IC50) (usually the concentration that inhibits the measured activity by half) was 100 to 500 nM.

Consider `C[C@@H](NC(=O)c1cc2ccccc2s1)c1cc(C(=O)NO)on1` [Compound I-176, 3-{(1R)-1-[(1-benzothien-2-ylcarbonyl)amino]ethyl}-N-hydroxyisoxazole-5-carboxamide], for which the IC50 is over 500 nM.

In the case of `C[C@H](NC(=O)c1cc2ccccc2s1)c1ncc(C(=O)NO)s1` [Compound I-180, 2-{(1S)-1-[(1-benzothien-2-ylcarbonyl)amino]ethyl}-N-hydroxy-1,3-thiazole-5-carboxamide], the 50% inhibitory concentration (IC50) is under 100 nM.

The compound `C[C@@H](NC(=O)C12CC3CC(CC(C3)C1)C2)c1ncc(C(=O)NO)s1` [Compound I-172, 2-((1R)-1-{[1-adamantylcarbonyl]amino}ethyl)-N-hydroxy-1,3-thiazole-5-carboxamide] registered a concentration for half-maximal inhibition (IC50) of over 500 nM.

Compound `CC(NC(=O)Nc1ccc(C(C)(C)C)cc1)c1ccc(C(=O)NO)s1` (stereo not shown) [Compound I-36, 5-[1-({[(4-tert-butylphenyl)amino]carbonyl}amino)ethyl]-N-hydroxythiophene-2-carboxamide] displayed an IC50 of under 100 nM.

In the case of `CC(NC(=O)NC1CCCC1)c1ccc(C(=O)NO)s1` (stereo not shown) [Compound I-1, 5-(1-(3-cyclopentylureido)ethyl)-N-hydroxythiophene-2-carboxamide], the IC50 is under 100 nM.

`C[C@@H](NC(=O)c1cc2ccccc2s1)c1ccc(C(=O)NO)s1` [Compound I-16, N-((1R)-1-{5-[(hydroxyamino)carbonyl]-2-thienyl}ethyl)-1-benzothiophene-2-carboxamide] had an IC50 of under 100 nM.

The compound `C[C@@H](NC(=O)c1cccn1C)c1ncc(C(=O)NO)s1` [Compound I-174, N-hydroxy-2-((1R)-1-{[(1-methyl-1H-pyrrol-2-yl)carbonyl]amino}ethyl)-1,3-thiazole-5-carboxamide] showed an IC50 of 100 to 500 nM.

The compound `CC(NC(=O)NC(C)c1ccc(C(=O)NO)s1)c1ccccc1` (stereo not shown) [Compound I-28, N-hydroxy-5-[1-({[(1-phenylethyl)amino]carbonyl}amino)ethyl]thiophene-2-carboxamide] registered a half-inhibitory concentration (IC50) of 100 to 500 nM.

`CC(NC(=O)Nc1ccccc1-c1ccccc1)c1ccc(C(=O)NO)s1` (stereo not shown) [Compound I-27, 5-(1-{[(biphenyl-2-ylamino)carbonyl]amino}ethyl)-N-hydroxythiophene-2-carboxamide] gave an IC50 of 100 to 500 nM.

The compound `Cc1nc(-c2ccccn2)sc1C(=O)N[C@H](C)c1cc(C(=O)NO)cn1C` [Compound I-156, N-((1R)-1-{4-[(hydroxyamino)carbonyl]-1-methyl-1H-pyrrol-2-yl}ethyl)-4-methyl-2-pyridin-2-yl-1,3-thiazole-5-carboxamide] returned an IC50 of over 500 nM.

As for `C[C@@H](NC(=O)c1cccn1C)c1ccc(C(=O)NO)s1` [Compound I-29, N-((1R)-1-{5-[(hydroxyamino)carbonyl]-2-thienyl}ethyl)-1-methyl-1H-pyrrole-2-carboxamide], the IC50 is under 100 nM.

On to `C[C@H](NC(=O)c1nc2ccccc2n1C)c1ncc(C(=O)NO)s1` [Compound I-173, N-((1S)-1-{5-[(hydroxyamino)carbonyl]-1,3-thiazol-2-yl}ethyl)-1-methyl-1H-benzimidazole-2-carboxamide], for which the 50% inhibitory concentration (IC50) was under 100 nM.

Regarding `CC(NC(=O)Nc1c(F)cccc1F)c1ccc(C(=O)NO)s1` (stereo not shown) [Compound I-20, 5-[1-({[(2,6-difluorophenyl)amino]carbonyl}amino)ethyl]-N-hydroxythiophene-2-carboxamide], the IC50 was in the range of 100 to 500 nM.

The compound `C[C@@H](NC(=O)C1(C)CCCCC1)c1cc(C(=O)NO)on1` [Compound I-157, N-hydroxy-3-((1R)-1-{[(1-methylcyclohexyl)carbonyl]amino}ethyl)isoxazole-5-carboxamide] returned an IC50 of over 500 nM.

With `CC(NC(=O)Nc1cccc(C(F)(F)F)c1)c1ccc(C(=O)NO)s1` (stereo not shown) [Compound I-3, N-hydroxy-5-{1-[({[3-(trifluoromethyl)phenyl]amino}carbonyl)amino]ethyl}thiophene-2-carboxamide], the concentration for half-maximal inhibition (IC50) was under 100 nM.

`CC(NC(=O)Nc1ccccc1Oc1ccccc1)c1ccc(C(=O)NO)s1` (stereo not shown) [Compound I-44, N-hydroxy-5-[1-({[(2-phenoxyphenyl)amino]carbonyl}amino)ethyl]thiophene-2-carboxamide]: the 50% inhibitory concentration (IC50) was under 100 nM.

As to `C[C@@H](NC(=O)c1cc2ccccc2o1)c1ncc(C(=O)NO)s1` [Compound I-165, 2-{(1R)-1-[(1-benzofuran-2-ylcarbonyl)amino]ethyl}-N-hydroxy-1,3-thiazole-5-carboxamide], the IC50 is under 100 nM.

In the case of `Cc1ccc(NC(=O)NC(C)c2ccc(C(=O)NO)s2)c(C)c1` (stereo not shown) [Compound I-13, 5-[1-({[(2,4-dimethylphenyl)amino]carbonyl}amino)ethyl]-N-hydroxythiophene-2-carboxamide], the half-inhibitory concentration (IC50) was under 100 nM.

`CC(NC(=O)Nc1ccc(OC(F)(F)F)cc1)c1ccc(C(=O)NO)s1` (stereo not shown) [Compound I-22, N-hydroxy-5-{1-[({[4-(trifluoromethoxy)phenyl]amino}carbonyl)amino]ethyl}thiophene-2-carboxamide] had a half-inhibitory concentration (IC50) of under 100 nM.

`Cc1c(C(=O)N[C@H](C)c2ccc(C(=O)NO)s2)sc2ccccc12` [Compound I-31, N-((1R)-1-{5-[(hydroxyamino)carbonyl]-2-thienyl}ethyl)-3-methyl-1-benzothiophene-2-carboxamide] came in with a concentration for half-maximal inhibition (IC50) of under 100 nM.

Compound `C[C@@H](NC(=O)c1cc2ccccc2o1)c1ccc(C(=O)NO)s1` [Compound I-39, N-((1R)-1-{5-[(hydroxyamino)carbonyl]-2-thienyl}ethyl)-1-benzofuran-2-carboxamide] had an IC50 of under 100 nM.

For the compound `C[C@@H](NC(=O)c1cc2ccccc2s1)c1ncc(C(=O)NO)s1` [Compound I-178, 2-{(1R)-1-[(1-benzothien-2-ylcarbonyl)amino]ethyl}-N-hydroxy-1,3-thiazole-5-carboxamide], the IC50 was under 100 nM.

For `CC(NS(=O)(=O)c1ccccc1)c1ccc(C(=O)NO)s1` (stereo not shown) [Compound I-48, N-hydroxy-5-{1-[(phenylsulfonyl)amino]ethyl}thiophene-2-carboxamide], the concentration for half-maximal inhibition (IC50) is 100 to 500 nM.

On to `C[C@H](NC(=O)c1cc2ccccc2s1)c1ccc(C(=O)NO)s1` [Compound I-21, N-((1S)-1-{5-[(hydroxyamino)carbonyl]-2-thienyl}ethyl)-1-benzothiophene-2-carboxamide], for which the 50% inhibitory concentration (IC50) was under 100 nM.

`C[C@@H](NS(=O)(=O)c1ccc(C(F)(F)F)cc1)c1ccc(C(=O)NO)s1` [Compound I-23, N-hydroxy-5-[(1R)-1-({[4-(trifluoromethyl)phenyl]sulfonyl}amino)ethyl]thiophene-2-carboxamide] had an IC50 of 100 to 500 nM.

In turn, `C[C@@H](NC(=O)C1(C)CCCCC1)c1ncc(C(=O)NO)s1` [Compound I-162, N-hydroxy-2-((1R)-1-{[(1-methylcyclohexyl)carbonyl]amino}ethyl)-1,3-thiazole-5-carboxamide] showed an IC50 of over 500 nM.

For the compound `C[C@@H](NC(=O)NC(C)(C)C)c1ccc(C(=O)NO)s1` [Compound I-8, 5-((1R)-1-{[(tert-butylamino)carbonyl]amino}ethyl)-N-hydroxythiophene-2-carboxamide], the IC50 is 100 to 500 nM.
